Where two headings read alike, the source gives them in different places.
Target: T1, human P450 11A1 (Homo sapiens, UniProt P05108)
T1 sequence (P05108 41-521 limits assumed): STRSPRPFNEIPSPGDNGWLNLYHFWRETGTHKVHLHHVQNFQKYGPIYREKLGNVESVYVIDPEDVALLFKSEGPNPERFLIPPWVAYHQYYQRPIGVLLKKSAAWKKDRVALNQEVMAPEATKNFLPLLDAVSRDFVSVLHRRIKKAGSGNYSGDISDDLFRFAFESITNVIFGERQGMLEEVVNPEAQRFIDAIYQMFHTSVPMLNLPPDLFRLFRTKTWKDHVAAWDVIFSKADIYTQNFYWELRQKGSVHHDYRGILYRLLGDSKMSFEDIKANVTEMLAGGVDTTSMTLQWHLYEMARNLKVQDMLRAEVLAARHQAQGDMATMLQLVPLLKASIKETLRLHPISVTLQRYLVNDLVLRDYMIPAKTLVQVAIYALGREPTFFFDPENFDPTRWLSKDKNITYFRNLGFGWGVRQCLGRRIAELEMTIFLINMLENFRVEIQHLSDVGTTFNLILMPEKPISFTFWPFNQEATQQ
T1 sequence (P00257 59-186 partner): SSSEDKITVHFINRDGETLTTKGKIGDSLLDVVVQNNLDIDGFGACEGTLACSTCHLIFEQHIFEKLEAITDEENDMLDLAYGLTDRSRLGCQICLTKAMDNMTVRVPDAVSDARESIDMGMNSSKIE
Assay: Kinetic modeling of single-turnover reactions (KinTek Explorer)
Assay type: biochemical
Design: M A S T R S P R P F N E I P S P G D N; Met-Ala (N-terminal start residues in place of the transit peptide and Ile40) (N); made in house; host or cells: E. coli (P450 11A1 in C41(DE3); Adx and AdR in E. coli)
Details: for k^+ of oxidation step of enzyme-bound sterol, high Adx: high Adx (50 μM); for k^+ of oxidation step of enzyme-bound sterol, high Adx / k^+ of oxidation step of enzyme-bound sterol, low Adx: adjusted to fit single-turnover data; for k^+ of oxidation step of enzyme-bound sterol, low Adx: low Adx (5 μM)
Description: A minimal kinetic model was assembled to fit the data of the single-turnover reactions (Fig. 9) using the parameters listed in Table 2 (Fig. 14). […] Each oxidation reaction is irreversible, and thus the rates of the reverse reactions (k-2, k-4, k-6) were set to zero. The single-turnover data (Fig. 9) were fit to a single exponential to calculate the first-order decay of cholesterol, that is, the rate of cholesterol 22R-hydroxylation (k2). […] The rate of 20R-hydroxylation of 22R-OH cholesterol (k4) was estimated similarly to k2 from exponential fitting of first-order formation of the 20R,22R-(OH)2 sterol from the 22R-OH sterol.
Data were imported into KinTek Explorer software (v. 11.01, KinTek, https://kintekcorp.com/software) ([63]) as txt files and processed using an Apple computer (operating system 11.6.2). The indicated kinetic model (Table 2) was used with the enzyme and substrate concentrations, first estimating the rate of disappearance of the substrate cholesterol.

[1] = read-out: k^+ for ligand binding to P450 11A1 (kon) used in model, set to the value determined for P450 11A1 and ketoconazole
[2] = read-out: k^− for ligand dissociation (koff) used in model, values measured by stopped-flow spectroscopy

Structure (SMILES) | k^+ of oxidation step of enzyme-bound sterol, high Adx [s⁻¹] | k^+ of oxidation step of enzyme-bound sterol, low Adx [s⁻¹] | kon [1] [M⁻¹ s⁻¹] | koff (read-out: k^− for ligand dissociation (koff) used in model) [s⁻¹] | k^+ for ligand binding to P450 11A1 (kon) used in model (set to the value determined for P450 11A1 and ketoconazole, listed as Q) [M⁻¹ s⁻¹] | koff [2] [s⁻¹] | k^+ for ligand binding to P450 11A1 (kon) used in model (set to the value determined for P450 11A1 and ketoconazole, listed as P) [M⁻¹ s⁻¹] | k^− for ligand dissociation (koff) used in model (values measured by stopped-flow spectroscopy, listed as P) [s⁻¹] | k^+ for ligand binding to P450 11A1 (kon) used in model (set to the value determined for P450 11A1 and ketoconazole, listed as S) [M⁻¹ s⁻¹] | k^+ for ligand binding to P450 11A1 (kon) used in model (set to the value determined for P450 11A1 and ketoconazole, listed as R) [M⁻¹ s⁻¹] | kon (set to the value determined for P450 11A1 and ketoconazole, read-out: k^+ for ligand binding to P450 11A1 (kon) used in model) [M⁻¹ s⁻¹] | koff (values measured by stopped-flow spectroscopy, read-out: k^− for ligand dissociation (koff) used in model) [s⁻¹]
CC(C)CC[C@@H](O)[C@](C)(O)[C@H]1CC[C@H]2[C@@H]3CC=C4C[C@@H](O)CC[C@]4(C)[C@H]3CC[C@]12C [20R,22R-(OH)2 Chol, (20R,22R)-Cholest-5-ene-3β,20,22-triol] | 1.7 | 0.55 | 500000 | 0.39 | 530000 | – | – | – | – | – | – | –
CC(C)CC[C@@H](O)[C@@H](C)[C@H]1CC[C@H]2[C@@H]3CC=C4C[C@@H](O)CC[C@]4(C)[C@H]3CC[C@]12C [22R-OH Chol, 22R-hydroxycholesterol] | 1.5 | 0.4 | 500000 | – | – | 0.04 | 530000 | 0.044 | – | – | – | –
CC(C)CCC[C@@H](C)[C@H]1CC[C@H]2[C@@H]3CC=C4C[C@@H](O)CC[C@]4(C)[C@H]3CC[C@]12C [Cholesterol] | 0.12 | 0.04 | 500000 | – | – | 0.24 | – | – | 530000 | – | – | –
CC(=O)[C@H]1CC[C@H]2[C@@H]3CC=C4C[C@@H](O)CC[C@]4(C)[C@H]3CC[C@]12C [Pregnenolone] | – | – | – | – | – | – | – | – | – | 530000 | 500000 | 0.55
